In patent US12441768B2, “Compositions and methods for treating endometriosis” (EndoMet Biosciences, Inc., priority 2018, dated 2025):
Where a SMILES comes first, the peptide text is derived from it.

What was measured:
[1] = biological target: Wnt-responsive promoter (TCF/LEF); experiment: Wnt-dependent luciferase reporter assay; assay type: cell-based, murine
Procedure, shortened: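 Murine 3T3 fibroblasts carrying a TCF/LEF-driven luciferase reporter, stimulated with Wnt3a in the presence of increasing peptide concentrations or vehicle. Luminescence inhibition gave EC50 values in uM.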

[2] = biological target: T1, β-catenin (Homo sapiens, UniProt P35222); experiment: KD50 measurement using competitive fluorescence polarization (FP) with labelled TCF4; assay type: binding; settings: fluorescence polarization, β-catenin; for Kd: read-out: β-Cat FP KD
T1 sequence (P35222 1-781): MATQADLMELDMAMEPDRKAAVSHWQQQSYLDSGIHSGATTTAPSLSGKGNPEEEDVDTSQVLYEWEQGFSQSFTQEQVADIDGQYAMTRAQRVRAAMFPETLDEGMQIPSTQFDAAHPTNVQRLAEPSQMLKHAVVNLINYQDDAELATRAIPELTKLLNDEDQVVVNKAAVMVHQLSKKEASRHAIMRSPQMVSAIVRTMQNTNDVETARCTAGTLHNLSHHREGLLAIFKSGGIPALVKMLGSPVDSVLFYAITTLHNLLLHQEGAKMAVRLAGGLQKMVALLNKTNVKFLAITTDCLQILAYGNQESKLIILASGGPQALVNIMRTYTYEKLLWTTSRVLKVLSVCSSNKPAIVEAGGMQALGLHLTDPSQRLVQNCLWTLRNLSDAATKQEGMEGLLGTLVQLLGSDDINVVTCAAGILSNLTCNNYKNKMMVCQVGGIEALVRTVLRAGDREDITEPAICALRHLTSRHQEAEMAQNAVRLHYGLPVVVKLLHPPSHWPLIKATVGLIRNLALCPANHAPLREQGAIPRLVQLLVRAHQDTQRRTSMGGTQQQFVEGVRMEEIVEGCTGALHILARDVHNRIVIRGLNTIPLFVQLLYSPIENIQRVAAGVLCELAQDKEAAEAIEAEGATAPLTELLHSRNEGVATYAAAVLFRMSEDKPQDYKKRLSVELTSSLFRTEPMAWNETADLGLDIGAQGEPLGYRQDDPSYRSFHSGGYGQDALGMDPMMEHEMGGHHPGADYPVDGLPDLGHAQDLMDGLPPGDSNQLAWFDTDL
Procedure, shortened: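 5 nM labelled TCF4 was combined with 100 nM β-catenin at room temperature, then inhibitor was titrated in serial dilutions from 10 nM to 30 uM. Polarization was read at excitation 470 nm, emission 520 nm; displacement lowers the signal. Three independent experiments.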

[3] = % Viability non-Wnt responsive cells

Row | Structure (SMILES) | EC50 [1] [µM] | Kd [2] [µM] | β-Cat FP Hill slope [2] | viability [3] [%]
1 | CC[C@H](C)[C@H](NC(=O)[C@H](CC(C)C)NC(=O)[C@H](Cc1ccccc1)NC(=O)[C@H](Cc1c[nH]c2ccccc12)NC(=O)[C@H](CCSC)NC(=O)[C@H](CCCNC(=N)N)NC(=O)[C@@H](NC(=O)[C@@H](N)CCSC)[C@@H](C)CC)C(=O)N[C@@H](CS)C(=O)N[C@@H](C)C(=O)N[C@@H](Cc1c[nH]c2ccccc12)C(=O)NCC(=O)O [compound 166] (H-MIRMWFLICAWG-OH) | > 30 | > 30 |  | 100
2 | CC[C@H](C)[C@@H]1NC(=O)[C@H](CC(C)C)NC(=O)[C@H](Cc2ccccc2)NC(=O)[C@H](Cc2c[nH]c3ccccc23)NC(=O)[C@H](CCSC)NC(=O)[C@@H](N)CCCCNC(=O)C[C@@H](C(=O)O)NC(=O)[C@H](Cc2c[nH]c3ccccc23)NC(=O)[C@H](C)NC(=O)[C@H](CS)NC1=O [compound 167] (HELM PEPTIDE1{K.M.W.F.L.I.C.A.W.D}$PEPTIDE1,PEPTIDE1,1:R3-10:R3$$$V2.0) | 7.5 to 15 | 1 to 10 | 0.7 | 98.8
3 | CC[C@H](C)[C@@H]1NC(=O)[C@H](CC(C)C)NC(=O)[C@H](Cc2ccccc2)NC(=O)[C@H](Cc2c[nH]c3ccccc23)NC(=O)[C@H](CCSC)NC(=O)[C@@H](N)CCCCNC(=O)C[C@@H](C(=O)O)NC(=O)[C@H](Cc2c[nH]c3ccccc23)NC(=O)[C@H](Cc2ccccc2)NC(=O)[C@H](CS)NC1=O [compound 170] (HELM PEPTIDE1{K.M.W.F.L.I.C.F.W.D}$PEPTIDE1,PEPTIDE1,1:R3-10:R3$$$V2.0) | 15 to 22.5 | 1 to 10 | 0.7 | 107
4 | CC[C@H](C)[C@@H]1NC(=O)[C@H](CC(C)C)NC(=O)[C@H](Cc2ccccc2)NC(=O)[C@H](Cc2c[nH]c3ccccc23)NC(=O)[C@@H](N)CCCCNC(=O)C[C@@H](C(=O)O)NC(=O)[C@H](Cc2c[nH]c3ccccc23)NC(=O)[C@H](Cc2ccccc2)NC(=O)[C@H](CS)NC1=O [compound 172] (HELM PEPTIDE1{K.W.F.L.I.C.F.W.D}$PEPTIDE1,PEPTIDE1,1:R3-9:R3$$$V2.0) | < 7.5 | 1 to 10 | 0.7 | 90.8

The next lines start with results.

Row | EC50 [1] [µM] | Kd [2] [µM] | β-Cat FP Hill slope [2] | Structure (SMILES) | viability [3] [%]
5 | < 7.5 | 1 to 10 | 0.7 | CC[C@H](C)[C@@H]1NC(=O)[C@H](CC(C)C)NC(=O)[C@H](Cc2ccccc2)NC(=O)[C@H](Cc2c[nH]c3ccccc23)NC(=O)[C@@H](N)CCCCNC(=O)C[C@@H](C(=O)O)NC(=O)[C@H](Cc2c[nH]c3ccccc23)NC(=O)[C@H](C)NC(=O)[C@H](CS)NC1=O [compound 168] (HELM PEPTIDE1{K.W.F.L.I.C.A.W.D}$PEPTIDE1,PEPTIDE1,1:R3-9:R3$$$V2.0) | 99.1
6 | < 7.5 | 1 to 10 | 0.7 | CC[C@H](C)[C@@H]1NC(=O)[C@H](CC(C)C)NC(=O)[C@H](Cc2ccccc2)NC(=O)[C@H](Cc2c[nH]c3ccccc23)NC(=O)[C@@H](NC(C)=O)CCCCNC(=O)C[C@@H](C(=O)O)NC(=O)[C@H](Cc2c[nH]c3ccccc23)NC(=O)[C@H](C)NC(=O)[C@H](CS)NC1=O [compound 169] (HELM PEPTIDE1{[ac].K.W.F.L.I.C.A.W.D}$PEPTIDE1,PEPTIDE1,2:R3-10:R3$$$V2.0) | 93.5
7 | < 7.5 | 1 to 10 | 0.7 | CC[C@H](C)[C@@H]1NC(=O)[C@H](CC(C)C)NC(=O)[C@H](Cc2ccccc2)NC(=O)[C@H](Cc2c[nH]c3ccccc23)NC(=O)[C@H](CCSC)NC(=O)[C@@H](N)CCCCNC(=O)C[C@@H](C(=O)O)NC(=O)[C@H](Cc2c[nH]c3ccccc23)NC(=O)[C@H](Cc2ccccc2)NC(=O)[C@H](CO)NC1=O [compound 171] (HELM PEPTIDE1{K.M.W.F.L.I.S.F.W.D}$PEPTIDE1,PEPTIDE1,1:R3-10:R3$$$V2.0) | 79.6
